Patent publication US12377074B2, “Treatment for Wolfram syndrome” (YALE UNIVERSITY, priority 2019, dated 2025)
“Also recorded” adds a separate entry of the source.

Tests used:
[1] = test system: calpain activity in INS-1 cells; settings: siRNA against WFS1, 10 μM dantrolene 48 h, then 0.5 μM thapsigargin 6 h, cleaved spectrin relative to GAPDH; cited from earlier work
[2] = cited from earlier work
WFS1-deficient cells [3] = settings: cited from earlier work
WFS1-deficient cells [4] = settings: cited from earlier work; remark: listed apart in the source
WFS1-KO INS1 cells [5] = assay: Resting cytosolic calcium imaging (Fura-2-AM), WFS1-KO cells; assay type: cell-based, rat; settings: 10 μM, 24 h treatment
Experimental: (§1) 2×10^5 cells were plated on each coverslip 2 days before imaging in INS1 medium without G418. HEPES-buffered saline (140 mM NaCl. 1.13 mM MgCl2, 4.7 mM KCL, 2 mM CaCl2, 10 mM D-glucose, and 10 mM HEPES, adjusted to pH 7.4 with NaOH) was used to prepare calcium dye solution and during imaging. In calcium-free HEPES buffer, CaCl2 was replaced with MgCl2 and 0.1 mM EGTA was added to chelate calcium. Fura-2-AM dye powder (Thermo Fisher) was dissolved to 4 μM in calcium-containing HEPES buffer supplemented with 0.03% Pluronic acid (Thermo Fisher). On the day of imaging, each coverslip was incubated in dye solution for 45 min in the dark at room temperature. Each coverslip was then washed 3 times in HEPES-buffered saline solution before calcium imaging began. Calcium measurements were performed with a Hammamatsu Orca R2 camera attached to a Zeiss microscope with a Sutter Lambda DG4 for excitation ratio imaging. Cells were imaged using sequential excitation at 340/380 nm (Fura-2-AM). Images were acquired with emission bandwidth of 501 to 550 nm every second. The raw 340 and 380 signals for each cell were subtracted by corresponding background signal before a 340/380 ratio was calculated. Max amplitude and area under the curve were calculated using PRISM Statistical Software 8. Rate of rise was quantified as the gradient between 25% and 75% maximum amplitude. […]

WFS1-WT INS1 cells [6] = assay: Glucose-stimulated insulin secretion (insulin ELISA), WFS1-WT cells; assay type: cell-based, rat; settings: 10 μM drug, 24 h
Experimental: (§2) For glucose-stimulated insulin secretion studies, INS1 cells were plated on 6-well plates at a density of 6×10^5 cells per well. After 24 hours, cells were incubated with drugs for another 24 hours. Two days after plating, the insulin ELISA assays were performed following a previously published protocol. In detail, preincubating cells in DMEM-base (Sigma) supplemented with 2.5 mM glucose for 1.5 h was followed by a 45 min incubation in DMEM-base with either 2.5 mM glucose for basal secretion or 9 mM glucose for stimulated secretion as indicated. 200 μl of supernatant were collected for analysis of insulin concentration using the Rat High Range ELISA kit (80-INSRTH-E01, ALPCO). Cells were washed with ice cold PBS and lysed in 1 mL 0.1% Triton X-100. Insulin levels were normalized to total protein measured by Micro BCA protein assay kit (23235, Thermo Fisher Scientific).

WFS1-WT INS1 cells [7] = assay: CellTiter-Glo cell viability assay, WFS1-WT cells; assay type: cell-based, rat; settings: 30 mM additional glucose (30G) 48 h, normalized to CTRL, 10 μM in FIG. 19C
Experimental: (§3) CellTiter-Glo™ (CTG) assay (Promega) was used to quantify ATP-dependent bioluminescence as an indicator of cell viability. To assess cell viability, INS1 cells were plated in white 96-well plates (Cat. 07-200-628, Fisher Scientific) at a density of 2×10^3 cells per well and treated the following day with high glucose and/or the indicated drugs for 48 hours before imaging. After treatment was completed, 100 μL of CTG solution was added to each well and 20 minutes later, reading was performed using a Tecan Infinite M1000 Pro microplate reader using the following setting: 5 s orbital shaking (3 mm, 216 rpm), followed by imaging in luminescence mode with 500 ms integration time.
(§4) Because intracellular calcium is an important determinant of cell viability, we measured cell viability in WFS1-WT and WFS1-KO cells. A luminescent, ATP-based assay was used. […] Following hyperglycemia (additional 30 mM glucose for 48 h), we observed an approximately 40% reduction in cell viability in WFS1-KO cells, whereas cell viability in WFS1-WT cells was only 15% lower than under control conditions (FIG. 19C). WFS1-KO cells could be rescued by WFS1 re-expression (SI Appendix, FIG. S5A). These findings are supported by previous reports showing that WFS1 deficiency causes progressive loss of pancreatic β-cells.

WFS1-WT INS1 cells [8] = assay: Resting cytosolic calcium imaging (Fura-2-AM), WFS1-WT cells; assay type: cell-based, rat; settings: 10 μM, 24 h treatment
Experimental: as §1

WFS1-KO INS1 cells [9] = assay: CellTiter-Glo cell viability assay, WFS1-KO cells; assay type: cell-based, rat; settings: for cell viability after hyperglycemia / cell viability at baseline: WFS1-KO cells; for cell viability after hyperglycemia: 30 mM additional glucose (30G) 48 h, normalized to CTRL, 10 μM in FIG. 19C; for cell viability at baseline: no additional glucose
Experimental: CellTiter-Glo™ (CTG) assay (Promega) was used to quantify ATP-dependent bioluminescence as an indicator of cell viability. […] After treatment was completed, 100 μL of CTG solution was added to each well and 20 minutes later, reading was performed using a Tecan Infinite M1000 Pro microplate reader using the following setting: 5 s orbital shaking (3 mm, 216 rpm), followed by imaging in luminescence mode with 500 ms integration time.
Because intracellular calcium is an important determinant of cell viability, we measured cell viability in WFS1-WT and WFS1-KO cells. A luminescent, ATP-based assay was used.

WFS1-OE INS1 cells = assay: CellTiter-Glo cell viability assay, WFS1-OE cells; assay type: cell-based, rat; settings: 30 mM additional glucose (30G) 48 h
Experimental: as §3, §4

WFS1-KO INS1 cells [10] = assay: Glucose-stimulated insulin secretion (insulin ELISA), WFS1-KO cells; assay type: cell-based, rat; settings: 10 μM drug; for glucose-stimulated insulin secretion: 9 mM glucose stimulation; for difference in glucose-stimulated insulin secretion between WFS1-WT and WFS1-KO cells: after stimulation with 9 mM glucose
Experimental: as §2

INS-1 cells (WT) = assay: Cell survival after high glucose, WT INS-1 cells (first set); assay type: cell-based, rat; settings: for cell survival after treatment with 31 mM glucose for 48 hours (glucose induced cell death): survival normalized to % survival at 1 mM glucose
Experimental: (§5) Survival is normalized to % survival at 1 mM glucose.
as §5

WFS1 KO INS-1 cells = assay: Cell survival after high glucose, WFS1 KO INS-1 cells (first set); assay type: cell-based, rat; settings: for cell survival after treatment with 31 mM glucose for 48 hours (glucose induced cell death): 31 mM glucose 48 h, survival normalized to % survival at 1 mM glucose
Experimental: as §5
The concentration range for protection from cell death by high glucose in WFS1 KO cells is similar.

## O=C1CN(/N=C/c2ccc(-c3ccc([N+](=O)[O-])cc3)o2)C(O)=N1 [Dantrolene, dantrolene]
[1]
  calpain activity: reduced
[2]
  side effects of prolonged use: liver toxicity
WFS1-deficient cells [3]
  cytosolic calcium levels: restored
WFS1-deficient cells [4]
  apoptosis: suppressed

## CCC(NC(=O)OCc1ccccc1)C(=O)C(=O)NCCCN1CCOCC1 (centres unmarked) [calpain inhibitor XI]
WFS1-KO INS1 cells [5]
  resting cytosolic calcium: lowered the resting cytosolic calcium in WFS1-KO cells to the level of WFS1-WT cells; also recorded: reversed elevated cytosolic calcium
WFS1-WT INS1 cells [6]
  insulin secretion: did not affect
WFS1-WT INS1 cells [7]
  cell viability after hyperglycemia: fully rescued cell viability back to baseline
WFS1-WT INS1 cells [7]; listed as C.I.
  cell viability after hyperglycemia: rescued
WFS1-WT INS1 cells [8]
  resting cytosolic calcium: without affecting
WFS1-KO INS1 cells [9]; WFS1-KO cells (clone #1), high glucose, dose series
  high glucose-induced loss of cell viability, dose dependence: reversed glucose toxicity-induced loss of cell viability in a dose-dependent manner; also recorded: dose-dependently reversed
WFS1-KO INS1 cells [9]
  cell viability after hyperglycemia: fully rescued cell viability back to baseline; also recorded: rescued cell viability back to normal level
  cell viability at baseline: did not significantly affect cell viability
WFS1-KO INS1 cells [9]; listed as C.I.
  cell viability after hyperglycemia: rescued
WFS1-OE INS1 cells
  cell viability after hyperglycemia: fully rescued cell viability back to baseline
WFS1-KO INS1 cells [10]; WFS1-KO cells, 24 h
  glucose-stimulated insulin secretion: reversed the impairment; also recorded: can be reversed
WFS1-KO INS1 cells [10]
  difference in glucose-stimulated insulin secretion between WFS1-WT and WFS1-KO cells: ameliorated the difference

## CN(C)CCCN1c2ccccc2Sc2ccc(Cl)cc21 [chlorpromazine]
INS-1 cells (WT); 31 mM glucose 48 h
  cell survival after treatment with 31 mM glucose for 48 hours (glucose induced cell death): no effect
INS-1 cells (WT); 31 mM glucose 48 h, listed as chlorprmazine
  cell survival after treatment with 31 mM glucose for 48 hours (glucose induced cell death): no effect on survival
WFS1 KO INS-1 cells
  cell survival after treatment with 31 mM glucose for 48 hours (glucose induced cell death): no effect
WFS1 KO INS-1 cells; listed as chlorprmazine
  cell survival after treatment with 31 mM glucose for 48 hours (glucose induced cell death): no effect on survival

## CC(C)C(=O)c1c(C(C)C)nn2ccccc12 [ibudilast]
INS-1 cells (WT); 1 mM glucose
  cell survival at low (normal) glucose: no effect; also recorded: does not alter cell survival
INS-1 cells (WT); 31 mM glucose 48 h
  concentration giving nearly full recovery/protection of survival: 1 µM
  cell survival after treatment with 31 mM glucose for 48 hours (glucose induced cell death): rescued viability; also recorded: did protect cell survival
INS-1 cells (WT); 31 mM glucose 48 h, read-out: half max effect on survival
  EC50: ~300 nM
WFS1-KO INS1 cells [5]
  resting cytosolic calcium: lowered the resting cytosolic calcium in WFS1-KO cells to the level of WFS1-WT cells; also recorded: reversed elevated cytosolic calcium
WFS1-WT INS1 cells [6]; 2.5 mM glucose
  insulin secretion at baseline: enhanced insulin secretion at baseline
WFS1-WT INS1 cells [7]
  cell viability after hyperglycemia: fully rescued cell viability back to baseline
WFS1-WT INS1 cells [7]; listed as IBU
  cell viability after hyperglycemia: rescued
WFS1-WT INS1 cells [8]
  resting cytosolic calcium: without affecting
WFS1-KO INS1 cells [9]
  cell viability after hyperglycemia: fully rescued cell viability back to baseline; also recorded: rescued cell viability back to normal level
  cell viability at baseline: did not significantly affect cell viability; also recorded: slightly raised cell viability
WFS1-KO INS1 cells [9]; listed as IBU
  cell viability after hyperglycemia: rescued
WFS1-OE INS1 cells
  cell viability after hyperglycemia: fully rescued cell viability back to baseline
WFS1-KO INS1 cells [10]; WFS1-KO cells, 2.5 mM glucose, 24 h
  insulin secretion at baseline: enhanced insulin secretion at baseline
WFS1-KO INS1 cells [10]; WFS1-KO cells, 24 h
  glucose-stimulated insulin secretion: reversed the impairment; also recorded: can be reversed
WFS1-KO INS1 cells [10]
  difference in glucose-stimulated insulin secretion between WFS1-WT and WFS1-KO cells: ameliorated the difference
WFS1 KO INS-1 cells
  cell survival after treatment with 31 mM glucose for 48 hours (glucose induced cell death): rescued viability
WFS1 KO INS-1 cells; high glucose
  concentration range for protection from cell death by high glucose, compared with WT: similar

## [Li] [lithium]
INS-1 cells (WT); 31 mM glucose 48 h
  cell survival after treatment with 31 mM glucose for 48 hours (glucose induced cell death): no effect
WFS1 KO INS-1 cells
  cell survival after treatment with 31 mM glucose for 48 hours (glucose induced cell death): no effect

## CCCC(CCC)C(=O)O [valproic acid]
INS-1 cells (WT); 31 mM glucose 48 h
  cell survival after treatment with 31 mM glucose for 48 hours (glucose induced cell death): no effect
INS-1 cells (WT); 31 mM glucose 48 h, listed as valproate
  cell survival after treatment with 31 mM glucose for 48 hours (glucose induced cell death): no effect on survival
WFS1 KO INS-1 cells
  cell survival after treatment with 31 mM glucose for 48 hours (glucose induced cell death): no effect
WFS1 KO INS-1 cells; listed as valproate
  cell survival after treatment with 31 mM glucose for 48 hours (glucose induced cell death): no effect on survival
